# Measured values: US10167262B2, “Herbicidal substituted 3-arylpyrazoles” (FMC CORPORATION, priority 2014, dated 2019)
# How the values were obtained:
# Assay type in all cases: in vivo
# [1] = system: morningglory (Ipomoea spp.); assay: Test A pre-/postemergence greenhouse herbicide test, visual injury rating 0-100
# Outline: (§1)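 Ratings are visual, 0 to 100 relative to untreated plants, taken approximately 10 days post-treatment in the greenhouse. Both preemergence soil and postemergence foliar routes were used with surfactant-containing non-phytotoxic solvent formulations.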
# [2] = system: wheat (Triticum aestivum); assay: as above
# Outline: as §1
# [3] = system: large (Lg) crabgrass (Digitaria sanguinalis); assay: as above
# Outline: as §1
# corn (Zea mays) = assay: as above
# Outline: as §1
# [4] = system: velvetleaf (Abutilon theophrasti); assay: as above
# Outline: as §1
# [5] = system: pigweed (Amaranthus retroflexus); assay: as above
# Outline: as §1
# [6] = system: giant foxtail (Setaria faberii); assay: as above
# Outline: as §1
# [7] = system: barnyardgrass (Echinochloa crus-galli); assay: as above
# Outline: as §1
# [8] = system: johnsongrass (Sorghum halepense); assay: Test C pre-/postemergence greenhouse test, plant response rating 0-100
# Outline: (§2)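 Pre-emergence soil and post-emergence foliar sprays were applied simultaneously to seeded loam–sand pots and to 1–4-leaf plants in peat medium; greenhouse holding lasted 13–15 days, then plants were scored visually from 0 (no effect) to 100 (complete control).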
# [9] = system: winter wheat (Triticum aestivum); assay: as above
# Outline: as §2
# [10] = system: giant foxtail (Setaria faberii); assay: as above
# Outline: as §2
# [11] = system: chickweed (common chickweed, Stellaria media); assay: Test C postemergence greenhouse test, plant response rating 0-100; settings: for Plant response rating, Chickweed: scale 0 to 100
# Outline: (§3)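 Formulated compounds applied postemergence; plants 1- to 4-leaf stage. Evaluated visually vs. untreated controls after roughly two weeks (13–15 d) under greenhouse conditions; 100 denotes complete control.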
# kochia (Kochia scoparia) = assay: as above; settings: for Plant response rating, Kochia: scale 0 to 100
# Outline: as §3
# wild oat (Avena fatua) = assay: as above; settings: for Plant response rating, Oat, Wild: scale 0 to 100
# Outline: as §3
# [12] = Postemergence, 250 g ai/ha, scale 0 to 100
# [13] = Postemergence, 500 g ai/ha, scale 0 to 100
smiles,measurement,setting,value
C=CCn1cc(C(=O)c2ccccc2)c(-c2cc(Cl)cc(Cl)c2)n1 [Compound 60],"Plant response rating (0 to 100 scale), Morningglory","[1]; Postemergence, 125 g ai/ha",0
same,"Plant response rating (0 to 100 scale), Morningglory","[1]; Postemergence, 500 g ai/ha",0
same,"Morningglory plant response rating (0 = no effect, 100 = complete control)","[1]; Preemergence, 125 g ai/ha",0
same,"Plant response rating (0 to 100 scale), Morningglory","[1]; Preemergence, 500 g ai/ha",0
same,"Plant response rating (0 to 100 scale), Wheat","[2]; Postemergence, 125 g ai/ha",0
same,"Plant response rating (0 to 100 scale), Wheat","[2]; Postemergence, 500 g ai/ha",0
same,"Wheat plant response rating (0 = no effect, 100 = complete control)","[2]; Preemergence, 125 g ai/ha",0
same,"Plant response rating (0 to 100 scale), Crabgrass, Large","[3]; Postemergence, 125 g ai/ha",0
same,"Plant response rating (0 to 100 scale), Crabgrass, Large","[3]; Postemergence, 500 g ai/ha",0
same,"Crabgrass, Large plant response rating (0 = no effect, 100 = complete control)","[3]; Preemergence, 125 g ai/ha",0
same,"Plant response rating (0 to 100 scale), Crabgrass, Large","[3]; Preemergence, 500 g ai/ha",0
same,"Plant response rating (0 to 100 scale), Corn","corn (Zea mays); Postemergence, 125 g ai/ha",0
same,"Plant response rating (0 to 100 scale), Corn","corn (Zea mays); Postemergence, 500 g ai/ha",0
same,"Corn plant response rating (0 = no effect, 100 = complete control)","corn (Zea mays); Preemergence, 125 g ai/ha",0
same,"Plant response rating (0 to 100 scale), Corn","corn (Zea mays); Preemergence, 500 g ai/ha",0
same,"Plant response rating (0 to 100 scale), Velvetleaf","[4]; Postemergence, 125 g ai/ha",90
same,"Plant response rating (0 to 100 scale), Velvetleaf","[4]; Postemergence, 500 g ai/ha",90
same,"Velvetleaf plant response rating (0 = no effect, 100 = complete control)","[4]; Preemergence, 125 g ai/ha",30
same,"Plant response rating (0 to 100 scale), Velvetleaf","[4]; Preemergence, 500 g ai/ha",40
same,"Plant response rating (0 to 100 scale), Pigweed","[5]; Postemergence, 125 g ai/ha",80
same,"Plant response rating (0 to 100 scale), Pigweed","[5]; Postemergence, 500 g ai/ha",90
same,"Pigweed plant response rating (0 = no effect, 100 = complete control)","[5]; Preemergence, 125 g ai/ha",60
same,"Plant response rating (0 to 100 scale), Pigweed","[5]; Preemergence, 500 g ai/ha",90
same,"Plant response rating (0 to 100 scale), Foxtail, Giant","[6]; Postemergence, 125 g ai/ha",0
same,"Plant response rating (0 to 100 scale), Foxtail, Giant","[6]; Postemergence, 500 g ai/ha",0
same,"Foxtail, Giant plant response rating (0 = no effect, 100 = complete control)","[6]; Preemergence, 125 g ai/ha",0
same,"Plant response rating (0 to 100 scale), Foxtail, Giant","[6]; Preemergence, 500 g ai/ha",0
same,"Plant response rating (0 to 100 scale), Barnyardgrass","[7]; Postemergence, 125 g ai/ha",0
same,"Plant response rating (0 to 100 scale), Barnyardgrass","[7]; Postemergence, 500 g ai/ha",0
same,"Barnyardgrass plant response rating (0 = no effect, 100 = complete control)","[7]; Preemergence, 125 g ai/ha",0
same,"Plant response rating (0 to 100 scale), Barnyardgrass","[7]; Preemergence, 500 g ai/ha",0
same,"Plant response rating (0 to 100), Johnsongrass","[8]; Postemergence, 62 g ai/ha",0
same,"Plant response rating (0 to 100), Johnsongrass","[8]; Postemergence, 125 g ai/ha",5
same,"Plant response rating, Johnsongrass",[8]; [12],5
same,"Plant response rating (0 to 100), Wheat","[9]; Postemergence, 62 g ai/ha",0
same,"Plant response rating (0 to 100), Wheat","[9]; Postemergence, 125 g ai/ha",0
same,"Plant response rating, Wheat",[9]; [12],0
same,"Plant response rating (0 to 100), Foxtail, Giant","[10]; Postemergence, 31 g ai/ha",0
same,"Plant response rating (0 to 100), Foxtail, Giant","[10]; Postemergence, 62 g ai/ha",5
same,"Plant response rating (0 to 100), Foxtail, Giant","[10]; Postemergence, 125 g ai/ha",5
same,"Plant response rating, Foxtail, Giant",[10]; [12],5
same,"Plant response rating (0 to 100), Chickweed",[11]; 31 g ai/ha,75
same,"Plant response rating (0 to 100), Chickweed",[11]; 125 g ai/ha,100
same,"Plant response rating, Chickweed",[11]; 250 g ai/ha,100
same,"Plant response rating (0 to 100), Kochia",kochia (Kochia scoparia); 62 g ai/ha,10
same,"Plant response rating (0 to 100), Kochia",kochia (Kochia scoparia); 125 g ai/ha,20
same,"Plant response rating, Kochia",kochia (Kochia scoparia); 250 g ai/ha,55
same,"Plant response rating (0 to 100), Oat, Wild",wild oat (Avena fatua); 62 g ai/ha,0
same,"Plant response rating (0 to 100), Oat, Wild",wild oat (Avena fatua); 125 g ai/ha,0
same,"Plant response rating, Oat, Wild",wild oat (Avena fatua); 250 g ai/ha,0
O=Cn1cc(C(=O)c2ccccc2)c(-c2cc(Cl)cc(Cl)c2)n1 [Compound 28],"Plant response rating (0 to 100 scale), Morningglory","[1]; Postemergence, 125 g ai/ha",0
same,"Plant response rating (0 to 100 scale), Morningglory","[1]; Postemergence, 500 g ai/ha",0
same,"Morningglory plant response rating (0 = no effect, 100 = complete control)","[1]; Preemergence, 125 g ai/ha",0
same,"Plant response rating (0 to 100 scale), Morningglory","[1]; Preemergence, 500 g ai/ha",0
same,"Plant response rating (0 to 100 scale), Wheat","[2]; Postemergence, 125 g ai/ha",0
same,"Plant response rating (0 to 100 scale), Wheat","[2]; Postemergence, 500 g ai/ha",0
same,"Wheat plant response rating (0 = no effect, 100 = complete control)","[2]; Preemergence, 125 g ai/ha",0
same,"Plant response rating (0 to 100 scale), Wheat","[2]; Preemergence, 500 g ai/ha",0
same,"Plant response rating (0 to 100 scale), Crabgrass, Large","[3]; Postemergence, 125 g ai/ha",0
same,"Plant response rating (0 to 100 scale), Crabgrass, Large","[3]; Postemergence, 500 g ai/ha",0
same,"Crabgrass, Large plant response rating (0 = no effect, 100 = complete control)","[3]; Preemergence, 125 g ai/ha",0
same,"Plant response rating (0 to 100 scale), Crabgrass, Large","[3]; Preemergence, 500 g ai/ha",0
same,"Plant response rating (0 to 100 scale), Corn","corn (Zea mays); Postemergence, 125 g ai/ha",0
same,"Plant response rating (0 to 100 scale), Corn","corn (Zea mays); Postemergence, 500 g ai/ha",0
same,"Corn plant response rating (0 = no effect, 100 = complete control)","corn (Zea mays); Preemergence, 125 g ai/ha",0
same,"Plant response rating (0 to 100 scale), Corn","corn (Zea mays); Preemergence, 500 g ai/ha",0
same,"Plant response rating (0 to 100 scale), Velvetleaf","[4]; Postemergence, 125 g ai/ha",80
same,"Plant response rating (0 to 100 scale), Velvetleaf","[4]; Postemergence, 500 g ai/ha",90
same,"Velvetleaf plant response rating (0 = no effect, 100 = complete control)","[4]; Preemergence, 125 g ai/ha",20
same,"Plant response rating (0 to 100 scale), Velvetleaf","[4]; Preemergence, 500 g ai/ha",60
same,"Plant response rating (0 to 100 scale), Pigweed","[5]; Postemergence, 125 g ai/ha",80
same,"Plant response rating (0 to 100 scale), Pigweed","[5]; Postemergence, 500 g ai/ha",90
same,"Pigweed plant response rating (0 = no effect, 100 = complete control)","[5]; Preemergence, 125 g ai/ha",80
same,"Plant response rating (0 to 100 scale), Pigweed","[5]; Preemergence, 500 g ai/ha",90
same,"Plant response rating (0 to 100 scale), Foxtail, Giant","[6]; Postemergence, 125 g ai/ha",0
same,"Plant response rating (0 to 100 scale), Foxtail, Giant","[6]; Postemergence, 500 g ai/ha",0
same,"Foxtail, Giant plant response rating (0 = no effect, 100 = complete control)","[6]; Preemergence, 125 g ai/ha",0
same,"Plant response rating (0 to 100 scale), Foxtail, Giant","[6]; Preemergence, 500 g ai/ha",0
same,"Plant response rating (0 to 100 scale), Barnyardgrass","[7]; Postemergence, 125 g ai/ha",0
same,"Plant response rating (0 to 100 scale), Barnyardgrass","[7]; Postemergence, 500 g ai/ha",0
same,"Barnyardgrass plant response rating (0 = no effect, 100 = complete control)","[7]; Preemergence, 125 g ai/ha",0
same,"Plant response rating (0 to 100 scale), Barnyardgrass","[7]; Preemergence, 500 g ai/ha",0
same,"Plant response rating (0 to 100), Johnsongrass","[8]; Postemergence, 62 g ai/ha",0
same,"Plant response rating (0 to 100), Johnsongrass","[8]; Postemergence, 125 g ai/ha",0
same,"Plant response rating, Johnsongrass",[8]; [12],0
same,"Plant response rating, Johnsongrass",[8]; [13],0
same,"Plant response rating, Johnsongrass","[8]; Preemergence, 62 g ai/ha",0
same,"Plant response rating, Johnsongrass","[8]; Preemergence, 125 g ai/ha",0
same,"Plant response rating, Johnsongrass","[8]; Preemergence, 250 g ai/ha",0
same,"Plant response rating, Johnsongrass","[8]; Preemergence, 500 g ai/ha",0
same,"Plant response rating (0 to 100), Wheat","[9]; Postemergence, 62 g ai/ha",0
same,"Plant response rating (0 to 100), Wheat","[9]; Postemergence, 125 g ai/ha",0
same,"Plant response rating, Wheat",[9]; [12],0
same,"Plant response rating, Wheat",[9]; [13],0
same,"Plant response rating, Wheat","[9]; Preemergence, 62 g ai/ha",0
same,"Plant response rating, Wheat","[9]; Preemergence, 125 g ai/ha",0
same,"Plant response rating, Wheat","[9]; Preemergence, 250 g ai/ha",0
same,"Plant response rating, Wheat","[9]; Preemergence, 500 g ai/ha",0
same,"Plant response rating (0 to 100), Foxtail, Giant","[10]; Postemergence, 62 g ai/ha",0
same,"Plant response rating (0 to 100), Foxtail, Giant","[10]; Postemergence, 125 g ai/ha",5
same,"Plant response rating, Foxtail, Giant",[10]; [12],0
same,"Plant response rating, Foxtail, Giant",[10]; [13],0
same,"Plant response rating, Foxtail, Giant","[10]; Preemergence, 62 g ai/ha",0
same,"Plant response rating, Foxtail, Giant","[10]; Preemergence, 125 g ai/ha",0
same,"Plant response rating, Foxtail, Giant","[10]; Preemergence, 250 g ai/ha",10
same,"Plant response rating, Foxtail, Giant","[10]; Preemergence, 500 g ai/ha",10
same,"Plant response rating (0 to 100), Chickweed",[11]; 62 g ai/ha,95
same,"Plant response rating (0 to 100), Chickweed",[11]; 125 g ai/ha,95
same,"Plant response rating, Chickweed",[11]; 250 g ai/ha,100
same,"Plant response rating, Chickweed",[11]; 500 g ai/ha,98
same,"Plant response rating (0 to 100), Kochia",kochia (Kochia scoparia); 62 g ai/ha,80
same,"Plant response rating (0 to 100), Kochia",kochia (Kochia scoparia); 125 g ai/ha,85
same,"Plant response rating, Kochia",kochia (Kochia scoparia); 250 g ai/ha,85
same,"Plant response rating, Kochia",kochia (Kochia scoparia); 500 g ai/ha,90
same,"Plant response rating (0 to 100), Oat, Wild",wild oat (Avena fatua); 62 g ai/ha,0
same,"Plant response rating (0 to 100), Oat, Wild",wild oat (Avena fatua); 125 g ai/ha,0
same,"Plant response rating, Oat, Wild",wild oat (Avena fatua); 250 g ai/ha,0
same,"Plant response rating, Oat, Wild",wild oat (Avena fatua); 500 g ai/ha,0
